Measurements: patent US7700592B2, “α2C adrenoreceptor agonists” (Schering Corporation, priority 2005, dated 2010)

Target: T1, α2C receptor (Homo sapiens, UniProt P18825)
T1 sequence (P18825 1-462): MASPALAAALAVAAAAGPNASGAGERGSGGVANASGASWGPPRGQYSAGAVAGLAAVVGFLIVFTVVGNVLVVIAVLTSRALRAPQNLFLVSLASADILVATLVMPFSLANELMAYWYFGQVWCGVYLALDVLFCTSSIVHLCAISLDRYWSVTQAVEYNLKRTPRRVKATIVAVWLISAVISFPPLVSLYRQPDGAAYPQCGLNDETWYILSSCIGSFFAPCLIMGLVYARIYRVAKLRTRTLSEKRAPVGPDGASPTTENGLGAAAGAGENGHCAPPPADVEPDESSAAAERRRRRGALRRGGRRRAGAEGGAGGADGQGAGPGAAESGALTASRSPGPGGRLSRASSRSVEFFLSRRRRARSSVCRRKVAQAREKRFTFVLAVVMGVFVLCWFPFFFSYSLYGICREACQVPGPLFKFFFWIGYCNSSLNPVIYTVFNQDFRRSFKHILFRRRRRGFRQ
Experiment: GTPγS assay, efficacy agonist activity (Emax) for α2C
Type: biochemical
Conditions: active agonist = efficacy at α2C ≧30% Emax; functionally selective = additionally efficacy at α2A ≦30% Emax (GTPγS assay)
From the text: For the purposes of this present invention, a compound is defined to be an active agonist of the α2C receptor subtype if the compound's efficacy at the α2C receptor is ≧30% Emax (GTPγS assay). A compound is a functionally selective agonist of the α2C receptor subtype over the α2A receptor subtype if the compound's efficacy at the α2C receptor is ≧30% Emax (GTPγS assay) and its efficacy at the α2A receptor is ≦30% Emax (GTPγS assay).
Efficacy agonist activity values (Emax, GTPγS assay) for α2C were determined by following the general procedure detailed by Umland et al (“Receptor reserve analysis of the human α2c-adrenoceptor using [^35S]GTPγS and cAMP functional assays” European Journal of Pharmacology 2001, 411, 211-221). For the purposes of the present invention, a compound is defined to be an active agonist of the α2C receptor subtype if the compound's efficacy at the α2C receptor is ≧30% Emax (GTPγS assay). A compound is a functionally selective agonist of the α2C receptor subtype over the α2A receptor subtype if the compound's efficacy at the α2C receptor is […] Emax (GTPγS assay) and its efficacy at the α2A receptor is ≦30% Emax (GTPγS assay).

Compound	Efficacy agonist activity (Emax, GTPγS assay) for α2C: evaluated as active or functionally selective agonist
COC(=O)Nc1ccc2c(c1)N(Cc1c[nH]cn1)CCS2 [Compound 24]	active or functionally selective agonists of the α2C receptor subtype
c1ccc2c(c1)SCCN2Cc1c[nH]cn1 [Compound 25B]	active or functionally selective agonists of the α2C receptor subtype
c1ccc2c(c1)NCCN2Cc1c[nH]cn1 [Compound 26A]	active or functionally selective agonists of the α2C receptor subtype
COC(=O)N1CCN(Cc2c[nH]cn2)c2ccccc21 [Compound 26B]	active or functionally selective agonists of the α2C receptor subtype
CN1CCN(Cc2c[nH]cn2)c2ccccc21 [Compound 26]	active or functionally selective agonists of the α2C receptor subtype
CC(=O)N1CCN(Cc2c[nH]cn2)c2ccccc21 [Compound 27E]	active or functionally selective agonists of the α2C receptor subtype
O=[N+]([O-])c1ccc2c(c1)N(Cc1c[nH]cn1)CCCO2 [Compound 28D]	active or functionally selective agonists of the α2C receptor subtype
COC(=O)Nc1ccc2c(c1)N(Cc1c[nH]cn1)CCCO2 [Compound 28]	active or functionally selective agonists of the α2C receptor subtype
CCOC(=O)Cc1ccc2c(c1)N(Cc1c[nH]cn1)CCO2 [Compound 29]	active or functionally selective agonists of the α2C receptor subtype
O=C(Cc1ccc2c(c1)N(Cc1c[nH]cn1)CCO2)NCc1ccccc1 [Compound 30]	active or functionally selective agonists of the α2C receptor subtype
O=[N+]([O-])c1ccc2c(c1)N(CCc1c[nH]cn1)CCO2 [Compound 37]	active or functionally selective agonists of the α2C receptor subtype
CCN(C(=O)NC)c1ccc2c(c1)N(Cc1c[nH]cn1)CCO2 [Compound 38]	active or functionally selective agonists of the α2C receptor subtype
CNC(=O)N(c1ccc2c(c1)N(Cc1c[nH]cn1)CCO2)C(C)C [Compound 46]	active or functionally selective agonists of the α2C receptor subtype
CNC(=O)Nc1ccc2c(n1)N(Cc1c[nH]cn1)CCO2 [Compound 51]	active or functionally selective agonists of the α2C receptor subtype
CCN(C(=O)OC)c1ccc2c(n1)N(Cc1c[nH]cn1)CCO2 [Compound 53]	active or functionally selective agonists of the α2C receptor subtype
Brc1ccc2c(n1)N(Cc1c[nH]cn1)CCO2 [Compound 54]	active or functionally selective agonists of the α2C receptor subtype
N#Cc1ccc2c(n1)N(Cc1c[nH]cn1)CCO2 [Compound 55]	active or functionally selective agonists of the α2C receptor subtype
COC(=O)Nc1cc(O)c2c(c1)N(Cc1c[nH]cn1)CCO2 [Compound 57]	active or functionally selective agonists of the α2C receptor subtype
CNC(=O)N(C)c1ccc2c(c1)N(CCc1c[nH]cn1)CCO2 [Compound 58]	active or functionally selective agonists of the α2C receptor subtype
CCN(C(=O)OCc1ccnc(N)c1)c1ccc2c(c1)N(Cc1c[nH]cn1)CCO2 [Compound 63]	active or functionally selective agonists of the α2C receptor subtype
CCN(C(=O)n1ccnc1)c1ccc2c(c1)N(Cc1c[nH]cn1)CCO2 [Compound 64A]	active or functionally selective agonists of the α2C receptor subtype

Compound	Efficacy agonist activity (Emax, GTPγS assay) for α2C: evaluated as active or functionally selective agonist
CCN(C(=O)OCc1ccccn1)c1ccc2c(c1)N(Cc1c[nH]cn1)CCO2 [Compound 64]	active or functionally selective agonists of the α2C receptor subtype
CCN(C(=O)OCc1ccc(S(C)(=O)=O)cc1)c1ccc2c(c1)N(Cc1c[nH]cn1)CCO2 [Compound 65]	active or functionally selective agonists of the α2C receptor subtype
COC(=O)Cc1ccc2c(c1)N(Cc1c[nH]cn1)CCO2 [Compound 114]	active or functionally selective agonists of the α2C receptor subtype
c1cnc2c(c1)OCCN2Cc1c[nH]cn1 [Compound 117]	active or functionally selective agonists of the α2C receptor subtype
Fc1cc(Br)cc2c1OCCN2Cc1c[nH]cn1 [Compound 124]	active or functionally selective agonists of the α2C receptor subtype
N#Cc1cc(F)c2c(c1)N(Cc1c[nH]cn1)CCO2 [Compound 125]	active or functionally selective agonists of the α2C receptor subtype
Cc1cc([N+](=O)[O-])cc2c1OCCN2Cc1c[nH]cn1 [Compound 129]	active or functionally selective agonists of the α2C receptor subtype
COC(=O)Nc1cc(C)c2c(c1)N(Cc1c[nH]cn1)CCO2 [Compound 130]	active or functionally selective agonists of the α2C receptor subtype
O=CNc1cc(F)c2c(c1)N(Cc1c[nH]cn1)CCO2 [Compound 132]	active or functionally selective agonists of the α2C receptor subtype
CNC(=O)N(C)c1cc(F)c2c(c1)N(Cc1c[nH]cn1)CCO2 [Compound 134]	active or functionally selective agonists of the α2C receptor subtype
COC(=O)N(C)c1cc(F)c2c(c1)N(Cc1c[nH]cn1)CCO2 [Compound 135]	active or functionally selective agonists of the α2C receptor subtype
COC(=O)Nc1ccc2c(n1)N(Cc1c[nH]cn1)CCO2 [Compound 137]	active or functionally selective agonists of the α2C receptor subtype
COC(=O)Nc1ccc2c(c1)N(CCc1c[nH]cn1)CCO2 [Compound 139]	active or functionally selective agonists of the α2C receptor subtype
CN(C)S(=O)(=O)Nc1ccc2c(c1)N(Cc1c[nH]cn1)CCS2 [Compound 142]	active or functionally selective agonists of the α2C receptor subtype
CNC(=O)N(C)c1ccc2c(c1)N(Cc1c[nH]cn1)CCS2 [Compound 144]	active or functionally selective agonists of the α2C receptor subtype
FC(F)(F)c1ccc2c(c1)N(Cc1c[nH]cn1)CCS2 [Compound 145]	active or functionally selective agonists of the α2C receptor subtype
COc1ccc(-c2ccc3c(c2)N(Cc2c[nH]cn2)CCO3)cn1 [Compound 148]	active or functionally selective agonists of the α2C receptor subtype
CCN(C(=O)OC)c1ccc2c(c1)N(Cc1c[nH]cn1)CCO2 [Compound 151]	active or functionally selective agonists of the α2C receptor subtype
N=C(N)c1cc(F)c2c(c1)N(Cc1c[nH]cn1)CCO2 [Compound 152]	active or functionally selective agonists of the α2C receptor subtype
CCN(C(C)=O)c1ccc2c(c1)N(Cc1c[nH]cn1)CCO2 [Compound 158]	active or functionally selective agonists of the α2C receptor subtype
CCOC(=O)N(CC)c1ccc2c(c1)N(Cc1c[nH]cn1)CCO2 [Compound 159]	active or functionally selective agonists of the α2C receptor subtype
